Laboratory results as given in patent publication US20260317319A1, “NOVEL ERGOLINES AND METHODS OF TREATING MOOD DISORDERS” (Gilgamesh Pharma Inc., priority 2023, published 2026).
pEC50, pKi: −log10 of the molar value. Like-named read-outs stand apart in the source and are kept apart here.

Tests used:
[1] = target: T1, 5-HT2A receptor (Homo sapiens, UniProt P28223); assay: cell-based; type: cell-based; conditions: agonist, beta-arrestin recruitment, max dose; read-out: 5-HT2A Arrestin % Act @ Max Dose
T1 sequence (P28223 whole entry, the tested form may be a part): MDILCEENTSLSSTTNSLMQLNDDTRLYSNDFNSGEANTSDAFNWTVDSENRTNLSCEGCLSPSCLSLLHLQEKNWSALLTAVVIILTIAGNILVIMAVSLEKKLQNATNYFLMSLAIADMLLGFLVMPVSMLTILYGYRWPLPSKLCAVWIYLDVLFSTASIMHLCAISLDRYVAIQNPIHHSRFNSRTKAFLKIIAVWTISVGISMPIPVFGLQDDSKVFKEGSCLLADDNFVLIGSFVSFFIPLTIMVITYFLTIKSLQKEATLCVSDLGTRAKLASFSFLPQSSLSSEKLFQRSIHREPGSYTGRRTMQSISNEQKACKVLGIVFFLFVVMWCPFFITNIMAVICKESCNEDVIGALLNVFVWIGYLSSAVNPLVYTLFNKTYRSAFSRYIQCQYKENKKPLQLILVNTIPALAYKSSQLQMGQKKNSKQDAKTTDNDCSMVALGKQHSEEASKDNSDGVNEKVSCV
Procedure: Arrestin Functional Assay at 5-HT2A. Recruitment of beta-arrestin was determined using a PathHunter assay at Eurofins DiscoverX (Fremont, CA) according to their standard protocols. PathHunter GPCR beta-arrestin assays take advantage of DiscoverX's proprietary Enzyme Fragment Complementation technology. The GPCR is fused in frame with a small enzyme donor fragment ProLink™ (PK) and co-expressed in cells stably expressing a fusion protein of beta-arrestin and the larger, N-terminal deletion mutant of beta-galactosidase. Activation of the GPCR (5-HT2A receptor in this case) stimulates binding of beta-arrestin to the PK-tagged GPCR and forces complementation of the two enzyme fragments, resulting in the formation of an active beta-galactosidase enzyme. This interaction leads to an increase in enzyme activity that can be measured using chemiluminescent PathHunter Detection Reagents. Briefly, PathHunter cells expressing 5-HT2A receptors were seeded in a volume of 20 μL into 384-well plates and incubated at 37° C. for the appropriate time prior to testing. […] Plates were then imaged on a microplate reader and the agonist activity was calculated using the following formula: % Activity=100%×(mean RLU of test sample-mean RLU of vehicle control)/(mean MAX control ligand-mean RLU of vehicle control), where RLU=relative light units.

[2] = in vitro; type: in vitro ADME, mouse; conditions: MLM (male CD-1) 0.50 mg/mL, NADPH 1 mM, 1 μM compound, pH 7.4, 37° C., 60 min; for microsomal CLint / half-life: mouse, microsomes; for microsomal CLint: read-out: Intrinsic clearance (Clint); for half-life: read-out: half-life (t1/2)
Description: MLM Stability Pooled MLM from male CD-1 mice (BIOIVT M00501) were used.

[3] = in vitro; type: in vitro ADME, rat; conditions: RLM (male Sprague-Dawley) 0.50 mg/mL, NADPH 1 mM, 1 μM compound, pH 7.4, 37° C., 60 min; for microsomal CLint / half-life: rat, microsomes; for microsomal CLint: read-out: Intrinsic clearance (Clint); for half-life: read-out: half-life (t1/2)
Description: RLM Stability Pooled RLM from male Sprague-Dawley rats (Xenotech R1000) were used.

[4] = target: T2, 5-HT2C receptor (Homo sapiens, UniProt P28335); assay: cell-based; conditions: agonist, Ca2+ flux, Eurofins DiscoverX protocol; for Emax: max dose, read-out: 5-HT2C % Act @ Max Dose; for pEC50: read-out: 5-HT2C EC50
T2 sequence (P28335 33-458): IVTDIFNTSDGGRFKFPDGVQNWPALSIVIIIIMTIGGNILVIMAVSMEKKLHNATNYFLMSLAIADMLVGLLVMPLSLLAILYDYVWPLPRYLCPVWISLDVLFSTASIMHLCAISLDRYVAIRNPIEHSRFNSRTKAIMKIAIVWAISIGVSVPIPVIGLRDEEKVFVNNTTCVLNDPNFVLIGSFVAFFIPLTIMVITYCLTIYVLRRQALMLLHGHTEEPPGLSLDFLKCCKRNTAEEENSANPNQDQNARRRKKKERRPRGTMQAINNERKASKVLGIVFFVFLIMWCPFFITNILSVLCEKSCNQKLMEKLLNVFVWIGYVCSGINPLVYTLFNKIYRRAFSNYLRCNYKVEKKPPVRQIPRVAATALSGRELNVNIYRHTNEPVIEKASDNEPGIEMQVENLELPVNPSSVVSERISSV

[5] = in vitro; type: in vitro ADME, human; conditions: HLM 0.50 mg/mL, NADPH 1 mM, 1 μM compound, pH 7.4, 37° C., 60 min; for microsomal CLint / half-life: human, microsomes; for microsomal CLint: read-out: Intrinsic clearance (Clint); for half-life: read-out: half-life (t1/2)
[6] = target: T3, 5-HT2B receptor (Homo sapiens, UniProt P41595); assay: cell-based; type: cell-based; conditions: Ca2+ flux; for Emax: HEK293, agonist, HEK293, max dose, read-out: 5-HT2B % Act @ Max Dose; for pEC50: agonist, HEK293
T3 construct: expressed in transfected cells; host or cells: HEK293, stably transfected
T3 sequence (P41595 whole entry): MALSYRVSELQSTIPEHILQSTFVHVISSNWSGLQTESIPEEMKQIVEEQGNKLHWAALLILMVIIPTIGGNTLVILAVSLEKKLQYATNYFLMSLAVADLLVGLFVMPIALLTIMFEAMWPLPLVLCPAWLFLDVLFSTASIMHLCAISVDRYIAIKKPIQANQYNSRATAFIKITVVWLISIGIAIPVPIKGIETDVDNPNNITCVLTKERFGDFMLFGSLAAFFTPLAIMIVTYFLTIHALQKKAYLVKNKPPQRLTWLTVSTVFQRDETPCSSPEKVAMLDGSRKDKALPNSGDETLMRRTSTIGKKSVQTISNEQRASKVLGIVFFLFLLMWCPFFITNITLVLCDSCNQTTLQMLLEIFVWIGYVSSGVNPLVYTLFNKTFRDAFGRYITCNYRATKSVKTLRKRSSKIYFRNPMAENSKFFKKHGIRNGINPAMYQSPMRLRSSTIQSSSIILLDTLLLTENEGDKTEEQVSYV
Procedure, shortened: (§1)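 FLIPR Tetra fluorescence read-out of calcium flux after compound addition. Receptor-expressing stable lines were used (HEK293 for 2A/2B; CHO with Gα15 for 1A), dye-loaded with Fluo-4 Direct and 2.5 mM final probenecid, 50 min at 37 °C.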

[7] = target: T1, 5-HT2A receptor; assay: cell-based; type: cell-based; set-up: expressed in transfected cells; host or cells: HEK293, stably transfected; conditions: Ca2+ flux; for Emax: HEK293, agonist, HEK293, max dose, read-out: 5-HT2A % Act @ Max Dose; for pEC50: agonist, HEK293
Procedure, shortened: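 Using HEK293 lines for the 5-HT2 subtypes and Gα15-coupled CHO cells for 5-HT1A, compounds were tested as agonists. Fluorescent Ca2+ signal followed dye loading (Fluo-4 Direct, 2.5 mM final probenecid, 50 min, 37 °C).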

[8] = target: T4, 5-HT1A receptor (Homo sapiens, UniProt P08908); assay: cell-based; conditions: agonist, Ca2+ flux; for Emax: CHO, CHO cells with Gα15, max dose, read-out: 5-HT1A % Act @ Max Dose; for pEC50: CHO cells with Gα15
T4 construct: expressed in transfected cells; host or cells: CHO cells, stably transfected
T4 sequence (P08908 1-422): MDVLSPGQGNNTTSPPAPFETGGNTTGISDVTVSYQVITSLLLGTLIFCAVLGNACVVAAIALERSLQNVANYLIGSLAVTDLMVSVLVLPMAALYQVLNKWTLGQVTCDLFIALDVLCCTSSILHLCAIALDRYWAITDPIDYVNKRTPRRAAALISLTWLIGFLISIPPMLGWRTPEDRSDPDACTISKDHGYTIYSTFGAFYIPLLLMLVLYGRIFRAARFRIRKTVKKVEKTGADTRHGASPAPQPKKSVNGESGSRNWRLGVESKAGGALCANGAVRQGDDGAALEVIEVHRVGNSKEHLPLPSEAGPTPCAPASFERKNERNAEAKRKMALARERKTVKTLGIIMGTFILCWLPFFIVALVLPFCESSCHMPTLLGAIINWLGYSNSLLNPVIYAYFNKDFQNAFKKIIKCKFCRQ
Procedure, shortened: as §1

[9] = target: T1, 5-HT2A receptor; assay: biochemical; type: binding; set-up: expressed in transfected cells; host or cells: HEK293, stably transfected; conditions: [3H]ketanserin 1 nM; HEK293 stable cell line; 1 h, 25 °C
Procedure, shortened: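 Values reflect [^3H]ketanserin binding competition. Assay conditions were adapted from the literature.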

Structure (SMILES)	Emax [1] [%]	half-life (t1/2) [2] [min]	half-life (t1/2) [3] [min]	Emax [4] [%]	half-life (t1/2) [5] [min]	Emax [6] [%]	Emax [7] [%]	Emax [8] [%]	microsomal CLint [2] [µL/min/mg]	half-life [2] [min]	microsomal CLint [3] [µL/min/mg]	half-life [3] [min]	pKi [9]	pEC50 [4]	microsomal CLint [5] [µL/min/mg]	half-life [5] [min]	pEC50 [6]	pEC50 [7]	pEC50 [8]
CCN(CC)C(=O)[C@H]1C=C2c3cccc4[nH]cc(c34)C[C@H]2N(CCCF)C1 [Compound 2a, (6aR,9S)—N,N-diethyl-7-(3-fluoropropyl)-4,6,6a,7,8,9-hexahydroindolo[4,3-fg]quinoline-9-carboxamide]	83.3	1.776	9.673	119	17.018	40.1	90.3	96.8											
CCCN1C[C@@H](C(=O)N[C@H](C)CC)C=C2c3cccc4[nH]cc(c34)C[C@H]21 [Compound 3a, (6aR,9S)—N—((R)-sec-butyl)-7-propyl-4,6,6a,7,8,9-hexahydroindolo[4,3-fg]quinoline-9-carboxamide]	113	0.6	1.4	109	2.2	52.8	92	108											
CC[C@@H](C)NC(=O)[C@H]1C=C2c3cccc4[nH]cc(c34)C[C@H]2N(CC)C1 [Compound 5a, (6aR,9S)—N—((R)-sec-butyl)-7-ethyl-4,6,6a,7,8,9-hexahydroindolo[4,3-fg]quinoline-9-carboxamide]	62.4	1.7	3.1	99.4	5.5	43.7	89.6	112											
C=CCN1C[C@@H](C(=O)N[C@H](C)CC)C=C2c3cccc4[nH]cc(c34)C[C@H]21 [Compound 8a, (6aR,9S)-7-allyl-N—((R)-sec-butyl)-4,6,6a,7,8,9-hexahydroindolo[4,3-fg]quinoline-9-carboxamide]	81.1	0.8	1.7	13.3	3.4	35.7	87.5	90.3											
CCN(CC)C(=O)[C@@H]1C=C2c3cccc4[nH]cc(c34)C[C@H]2N(Cc2cccc(F)c2)C1 [Compound 52, (6aR,9R)—N,N-diethyl-7-(3-fluorobenzyl)-4,6,6a,7,8,9-hexahydroindolo[4,3-fg]quinoline-9-carboxamide]				14.5		4.22	81.7	93	338	4.1	302	4.6	8.27	< 5.00	77.9	17.8	< 5.00	6.33	5.10
CCN(CC)C(=O)[C@@H]1C=C2c3cccc4[nH]cc(c34)C[C@H]2N(Cc2ccc(F)c(F)c2)C1 [Compound 54, (6aR,9R)-7-(3,4-difluorobenzyl)-N,N-diethyl-4,6,6a,7,8,9-hexahydroindolo[4,3-fg]quinoline-9-carboxamide]				8.36		0.91	59.2	51	242	5.7	110	12.6	8.27	< 5.00	73.9	18.7	< 5.00	5.73	< 4.00
CCN(CC)C(=O)[C@@H]1C=C2c3cccc4[nH]cc(c34)C[C@H]2N(Cc2ccc(C)cc2)C1 [Compound 97, (6aR,9R)—N,N-diethyl-7-(4-methylbenzyl)-4,6,6a,7,8,9-hexahydroindolo[4,3-fg]quinoline-9-carboxamide]								84.5	511	2.7	532	2.6	7.64	8.39	63.5	21.8	7.78	7.64	< 4.00
